Data published in US20110262502A1, “PULMONARY DELIVERY OF 17-HYDROXYPROGESTERONE CAPROATE (17-HPC)” (Prairie Pharmaceuticals LLC, priority 2010, published 2011).
Like-named read-outs stand apart in the source and are kept apart here. Blank lines part the entries; values can stand above or below the molecule they belong to.

Key:
[1] = API particle size distribution (Dv(10), Dv(50), Dv(90), Span); type: physicochemical
Excerpt: In determining and characterizing particle size, e.g., particle size of an API (active pharmaceutical ingredient), the particle size parameters Dv(10), Dv(50) and Dv(90) may be used. Particle size measurements are preferably expressed in terms of Dv(10), Dv(50), and Dv(90), wherein Dv(10) refers to the particle size below which 10% of the volume of material exists; Dv(50) refers to the particle size below which 50% of the volume of material exists; and Dv(90) refers to the particle size below which 90% of the volume of material exists.
Referring to Table 5, experiments were performed with a suspension comprising the active pharmaceutical ingredient (the API), i.e., 17-HPC was the API in these experiments, wherein 17-HPC was present at approximately five percent (5%) w/w in water; and the suspension also comprised the surfactant Tween 80 at approximately 15% in these experiments (processing conditions conducted at Pressure=90 bar). […] Particle size measurements are expressed in terms of Dv(10), Dv(50), and Dv(90), wherein Dv(10) refers to the particle size below which 10% of the volume of material exists; Dv(50) refers to the particle size below which 50% of the volume of material exists; and Dv(90) refers to the particle size below which 90% of the volume of material exists). […]
Exemplary particle size reduction experiments, and characterization of API (i.e., 17-HPC) particle size distribution, using a suspension prepared without a surfactant. Referring to Table 7, particle size reduction of 17-HPC was observed without using any surfactant. Experiments were performed with a suspension comprising the active pharmaceutical ingredient (the API), i.e., 17-HPC in these experiments, in water and without a surfactant. FIG. 16 depicts an exemplary API particle size distribution profile (17-HPC is the active ingredient) after a spray-drying (SD) process. Referring again to FIG. 16, and also to Table 7, an exemplary 17-HPC particle size distribution profile was obtained after approximately 10 to 55 cycles of milling. API particle size was measured after spray drying (SD). Particle size measurements are expressed in terms of Dv(10), Dv(50), and Dv(90), wherein Dv(10) refers to the particle size below which 10% of the volume of material exists; Dv(50) refers to the particle size below which 50% of the volume of material exists; and Dv(90) refers to the particle size below which 90% of the volume of material exists).

[2] = Dynamic vapor sorption (DVS) of 17-HPC powder; type: physicochemical; conditions: FIG. 18; increasing percent relative humidity
Procedure: Dynamic vapor sorption (DVS) is a gravimetric technique that measures how quickly and how much of a solvent is absorbed by a sample, such as a dry powder absorbing water. DVS accomplishes this by varying the vapor concentration surrounding the sample and measuring the change in mass which this produces.
Analysis of 17-HPC dry powder (obtained after particle size reduction and spray drying or SD) was performed. FIG. 18 depicts exemplary results from a dynamic vapor sorption (DVS) analysis of a dry powder obtained after a spray-drying (SD) process. One particular batch (PGC2011-020PD) was selected to be analyzed by DVS. […] There was no substantive change in adsorption or desorption even with conditions of increasing percent relative humidity. Referring to FIG. 19, exemplary results are shown of XRPD analysis of a 17-HPC dry powder obtained after particle size reduction and a spray-drying (SD) process. One particular batch (PGC2011-020PD) was selected to be analyzed by XRPD.

[3] = system: PHA-induced IL-2 production in PBMCs; assay: PHA-induced IL-2 production in PBMCs from healthy male smokers (no IL-2/IL-4 added), ELISA; type: cell-based, human; conditions: for levels of IL-2 in PBMCs: FIG. 1, PHA; for % inhibition of PHA stimulation of IL-2: Table 2
Procedure: PBMCs were isolated from human blood buffy coats provided by a regional blood center. Random buffy coat cells from male donors were a by-product of blood processed for clinical use and no details (i.e., personal identification and background) were provided except for tobacco use. […] PBMCs were separated using a porous high density polyethylene barrier (HISTOPAQUE from GEHealthcare Bio-Sciences AB (US). After centrifugation of blood samples in each tube (35 minutes at 800×g at room temperature, or RT), PBMCs were collected and washed twice with Hank's buffered saline solution (HBSS). PBMCs were resuspended in RPMI-1640 medium containing 10% fetal calf serum (FCS) and 15 mM glutamine and cells were counted and plated.
(§1) PBMCs (2×10^6) were incubated with or without IL-2 (13 ng/ml) and IL-4 (6.5 ng/ml) for 48 hours in RPMI-1640 medium containing 10% FCS and 2 mM glutamine. […] IL-2 and IL-4 stimulated PBMCs were also plated at a concentration of 10^6 cells/ml in 96-well plates ready for PHA (15 μg/mL, 24 hours) stimulation of cytokine release and detection by ELISA.
Serial dilutions of standards and PBMCs' supernatants were measured by enzyme linked immunosorbent assay to determine IL-2 at baseline and its levels after 17HPC, P4 and MAP treatments. Optical density was measured at 450 nm and corrected with 550 nm. The concentration of TL-2 was calculated using the standard curve and taking into account the supernatant dilution used. Detection limit for IL-2 is 4.0 pg/ml.
Data are expressed as mean±SD. The efficacies of the drug treatments were analyzed by paired t-test. One-way analysis of variance was used to compare three or more matched groups and 95% CI was performed to present groups differences. All graphs indicate mean values of results or % inhibition of PHA-stimulated IL-2. IC50 values were calculated by using a sigmoidal model (BioDataFit). A p value <0.05 was considered statistically significant.
(§2) IL-2 levels were quantified using ELISA.
IL-2 levels were quantified using ELISA. IC50 values were calculated by using a sigmoidal model (BioDataFit).
as §2, §2, §2

[4] = system: PHA-induced IL-2 release in IL-2 and IL-4 treated (steroid resistant) PBMCs; assay: IL-2/IL-4 induced steroid resistance model in PBMCs: dexamethasone inhibition of PHA-induced IL-2 release; type: cell-based, human
Procedure: J Immunol 2009; 183; 164-171). […] Following PBMCs stimulation with mitogen phytohaemagglutinin (PHA), there is a strong correlation between cytokine secretion levels and steroid resistance as well as steroid sensitivity in vitro. Addition of IL-2, IL-4 and TNF-reduce steroid sensitivity.
as §1
IL-2/4 induced steroid resistance in PBMCs, a well-recognized study model, was used to evaluate potential modifiers of steroid resistance and sensitivity. PBMCs from healthy smokers were collected. Corticosteroid insensitivity or resistance was induced by adding IL-2 and IL-4 in peripheral blood mononuclear cells (PBMCs) from healthy male smokers (n=˜11). […] IL-2 levels were quantified using ELISA.
J Immunol 2009; 183; 164-171).
as §2

[5] = Table 7, powders after spray drying, bulk material for comparison
[6] = Example 8, Dexamethasone only 10E−6M
[7] = Example 8, Dexamethasone only 10E−8M
[8] = Example 8, Dexamethasone only 10E−11M
[9] = Homo sapiens, PBMC, read-out: % inhibition on PHA-induced IL-2 production

Particle Size Dv(10) ([1]; Table 5, bulk material): 6.345 μm | Particle Size Dv(50) ([1]; Table 5, bulk material): 56.762 μm | Particle Size Dv(90) ([1]; Table 5, bulk material): 307.607 μm | Particle Size Span ([1]; Table 5, bulk material): 5.307 | API particle size after SD (powders) Dv(10) [1, 5]: 2.398 μm | API particle size after SD (powders) Dv(50) [1, 5]: 23.610 μm | API particle size after SD (powders) Dv(90) [1, 5]: 98.799 μm | API particle size after SD (powders) Span [1, 5]: 4.083
SMILES: CCCCCC(=O)O[C@]1(C(C)=O)CC[C@H]2[C@@H]3CCC4=CC(=O)CC[C@]4(C)[C@H]3CC[C@@]21C [Bulk material]
water uptake in DVS (percent change in weight vs RH %) [2]: neither the obtained powders nor the bulk material gained any measurable quantity of water

SMILES: C[C@@H]1C[C@H]2[C@@H]3CCC4=CC(=O)C=C[C@]4(C)[C@@]3(F)[C@@H](O)C[C@]2(C)[C@@]1(O)C(=O)CO [Dexamethasone]
% inhibition of PHA-induced IL-2 production [3, 6]: (86%) | mean IL-2 [3, 6]: 109.6 pg/mL | % inhibition of PHA-induced IL-2 production [3, 7]: 67% | mean IL-2 [3, 7]: 251.6 pg/mL | % inhibition of PHA-induced IL-2 production [3, 8]: (72%) | mean IL-2 [3, 8]: 216.1 pg/mL | levels of IL-2 in PBMCs ([3]; dex 10^−8M, n=17, mean±SD): 293 ± 338 pg/mL | levels of IL-2 in PBMCs ([3]; dexamethasone 10^−6M, n=17, mean±SD): 144 ± 157 pg/mL | levels of IL-2 in PBMCs ([3]; dexamethasone 10^−10 M, n=14, mean±SD): 287 ± 313 pg/mL | levels of IL-2 in PBMCs ([3]; dexamethasone 10^−12 M, n=11, mean±SD): 371 ± 447 pg/mL | inhibition at 1 µM ([3]; Homo sapiens, PBMC): 87% | IC50 ([3]; Homo sapiens, PBMC, Dexamethasone+17HPC at lower 17HPC concentrations, read-out: Dexamethasone-IC50): 0.001 to 0.0631 nM | IC50 ([3]; Homo sapiens, PBMC, read-out: Dexamethasone IC50, Dexamethasone only, sigmoidal model, N=14): 31.6 nM | IC50 ([3]; Homo sapiens, PBMC, read-out: Dexamethasone IC50, with 17HPC 10^−5M add-on): 25.4 nM | IC50 ([3]; Homo sapiens, PBMC, read-out: Dexamethasone IC50, with 17HPC 10^−10M add-on): 0.0627 nM | inhibition at 0.0001 µM [3, 9]: 52% | mean IL-2 ([3]; Table 1, Dexamethasone only 10^−6M): 160.6 pg/mL | mean IL-2 ([3]; Table 1, Dexamethasone only 10^−8M): 398.1 pg/mL | mean IL-2 ([3]; Table 1, Dexamethasone only 10^−10M): 312.7 pg/mL | mean IL-2 ([3]; Table 1, Dexamethasone only 10^−12M): 371.7 pg/mL | % inhibition of PHA stimulation of IL-2 ([3]; Dexamethasone only 10^−6 M (Imax)): 78% | % inhibition of PHA stimulation of IL-2 ([3]; Dexamethasone only 10^−8 M): 46% | % inhibition of PHA stimulation of IL-2 ([3]; Dexamethasone only 10^−10 M): 57% | % inhibition of PHA stimulation of IL-2 ([3]; Dexamethasone only 10^−12 M): 49% | effect in basal IL-2 level ([3]; no PHA stimulation, data not shown): no significant effect | % inhibition on PHA-induced IL-2 production ([4]; FIG. 2, Dexamethasone 10^−10 M, with addition of IL-2 and IL-4): no inhibition | PHA-induced IL-2 level ([4]; FIG. 5, Dexamethasone 10^−10 M without 17HPC): 2364 pg/mL | inhibition at 1 µM [4, 9]: 21%
